29 compounds from patent publication US6794396B2, “Substituted pyridines useful for inhibiting cholesteryl ester transfer protein activity” (Pharmacia Corporation, priority 1998, dated 2004) can be followed below.

For one assay, the target named is T1, CETP (Homo sapiens, UniProt P11597).
T1 construct: made in house; host or cells: CHO cells (serum-free conditioned medium)
T1 sequence (P11597 18-493): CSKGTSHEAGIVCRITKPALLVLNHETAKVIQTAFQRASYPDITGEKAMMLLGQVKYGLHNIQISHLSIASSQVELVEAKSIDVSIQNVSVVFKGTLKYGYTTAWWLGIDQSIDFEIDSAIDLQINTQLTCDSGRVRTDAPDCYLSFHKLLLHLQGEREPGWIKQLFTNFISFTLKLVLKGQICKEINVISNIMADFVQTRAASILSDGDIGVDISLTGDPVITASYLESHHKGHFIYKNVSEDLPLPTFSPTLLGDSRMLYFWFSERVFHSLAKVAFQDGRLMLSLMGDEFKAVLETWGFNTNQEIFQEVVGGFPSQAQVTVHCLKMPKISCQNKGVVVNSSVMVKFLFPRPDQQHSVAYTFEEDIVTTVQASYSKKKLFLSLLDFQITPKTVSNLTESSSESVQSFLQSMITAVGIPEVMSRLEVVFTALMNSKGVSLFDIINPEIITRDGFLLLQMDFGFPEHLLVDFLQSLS
Put plainly: CETP activity in vitro: transfer of [3H]CE from HDL donor to LDL acceptor particles. Type of assay: biochemical. Conditions: 10 μm. On the procedure:
The ability of compounds to inhibit CETP were assessed using an in vitro assay that measured the rate of transfer of radiolabeled cholesteryl ester ([^3H]CE) from HDL donor particles to LDL acceptor particles. Details of the assay are provided by Glenn et al. (“Quantification of Cholesteryl Ester Transfer Protein (CETP): A) CETP Activity and B) Immunochemical Assay of CETP Protein,” Meth. Enzymol., Glenn and Melton (Meth. Enzymol., 263, 339-351 (1996), which is incorporated herein by reference). CETP was obtained from the serum-free conditioned medium of CHO cells transfected with a cDNA for CETP (Wang, S. et al. J. Biol Chem. 267, 17487-17490 (1992), which is incorporated herein by reference).
To measure CETP activity, [^3H]CE-labeled HDL, LDL, CETP and assay buffer (50 mM tris(hydroxymethyl)amino-methane, pH 7.4; 150 mM sodium chloride; 2 mM ethylenediamine-tetraacetic acid; 1% bovine serum albumin) were incubated in a volume of 200 μl, for 2 hours at 37° C. in 96 well plates. LDL was differentially precipitated by the addition of 50 μl of 1% (w/v) dextran sulfate/0.5 M magnesium chloride, mixed by vortex, and incubated at room temperature for 10 minutes The solution (200μl) was transferred to a filter plate (Millipore). After filtration, the radioactivity present in the precipitated LDL was measured by liquid scintillation counting.
This value was defined as the IC50.
For the compound `CCOC(C)Sc1c(C(F)(F)F)nc(C(F)F)c(C(=O)OC)c1CC(C)C` (centres unmarked) [Compound 146, Methyl 2-(Difluoromethyl)-5-(1-ethoxyethylthio)-4-(2-methylpropyl)-6-(trifluoromethyl)-3-pyridinecarboxylate], the “% transfer at 10 μm” value is 67^D %.

For `COC(=O)c1c(C(F)F)nc(C(F)(F)F)c(SC(C)OC)c1CC(C)C` (centres unmarked) [Compound 147, Methyl 2-(Difluoromethyl)-4-(2-methylpropyl)-5-(1-methoxyethylthio)-6-(trifluoromethyl)-3-pyridinecarboxylate], the “% transfer at 10 μm” value is on record as 15^D %.

Still in this assay, the particulars now being: 50% inhibition of [3H]CE transfer from HDL to LDL, 2 hours at 37° C.; read-out: IC50(μm).
Consider `CCOC(=O)c1c(C(F)(F)F)nc(C(F)(F)F)c(C)c1OC(C)C` [Compound 53, Ethyl 2,6-Bis(trifluoromethyl)-4-(isopropoxy)-5-methyl-3-pyridinecarboxylate], for which the half-inhibitory concentration (IC50) was determined as 50 µM.

As for `COC(=O)c1c(C(F)(F)F)ncc(C(=O)c2cnc(C(F)(F)F)c(C(=O)OC)c2OC(C)C)c1OC(C)C` [Compound 54], the 50% inhibitory concentration (IC50) was 50 µM.

With `CCOC(=O)c1c(C(F)(F)F)nc(C(F)(F)F)c(C#N)c1OCC` [Compound 64], the 50% inhibitory concentration (IC50) was determined as 60 µM.

On to `COC(=O)c1c(C(F)F)nc(C(F)(F)F)c(C(=O)OC)c1Cc1ccnc(SC)n1` [Compound 67, Dimethyl 2-(Difluoromethyl)-4-{[(2-methylthio)pyrimidin-4-yl]methyl}-6-(trifluoromethyl)-3,5-pyridinedicarboxylate], for which the half-maximal inhibitory concentration (IC50) is 60 µM.

`COC(=O)c1c(C(F)F)nc(C(F)(F)F)c(C(N)=S)c1CC(C)C` [Compound 77, Methyl 2-(Difluoromethyl)-4-(2-methylpropyl)-5-(aminothionocarbonyl)-6-(trifluoromethyl) -3-pyridinecarboxylate]: the IC50 worked out at 70 µM.

As to `COC(=O)c1c(C(F)F)nc(C(F)(F)F)c(CSC(=O)N(C)C)c1CC(C)C` [Compound 79], the IC50 came to 75 µM.

As to `COC(=O)c1c(C(F)F)nc(C(F)(F)F)c(CCl)c1CC(C)C` [Compound 83, Methyl 5-Chloromethyl-2-(difluoromethyl)-4-(2-methylpropyl)-6-(trifluoromethyl)-3-pyridinecarboxylate], the IC50 came to 80 µM.

Take `CCOP(=O)(OCC)C(=O)c1c(C(F)(F)F)nc(C(F)F)c(C(=O)OC)c1NC(C)C` [Compound 85, Methyl 5-[(Diethoxyphosphinyl)carbonyl]-2-(difluoromethyl)-4-(1-methylethylamino)-6-(trifluoromethyl)-3-pyridinecarboxylate]: the IC50 worked out at 90 µM.

Still in this assay, the particulars now being: 100 μm.
Consider `COC(=O)c1c(C(F)F)nc(C(F)(F)F)c(SCC(N)=O)c1CC(C)C` [Compound 145], for which the “% Transfer @ 100 μm” value stood at 64%.

Staying with this assay, now noted: 2 h, read-out: % Transfer @ 100 μm.
As for `COC(=O)c1c(C(F)F)nc(C(F)(F)F)c([S+]([O-])CCCl)c1CC(C)C` (centres unmarked) [Compound 111, Methyl 5-(Chloroethylsulfinyl)-2-(difluoromethyl)-4-(2-methylpropyl)-6-(trifluoromethyl)-3-pyridinecarboxylate], the remaining activity at 100 µM turned out to be 78%.

Staying with this assay, now noted: 2 h; read-out: % Transfer @ 100 μm.
As to `CCOC(=O)c1c(C(F)(F)F)ncc(C(=O)OC(C)C)c1O` [Compound 101, 3-Ethyl 5-Isopropyl 4-hydroxy-2-(trifluoromethyl)-3,5-pyridinedicarboxylate], the remaining activity at 100 µM was found to be 71%.

As for `COC(=O)c1c(C(F)F)nc(C(F)(F)F)c(C2CC(C)N(O)C2)c1CC1CC1` (centres unmarked) [Compound 107, Methyl 4-(Cyclopropylmethyl)-2-(difluoromethyl)-5-(1-hydroxy-5-methyl-3-pyrrolidinyl)-6-(trifluoromethyl)-3-pyridinecarboxylate], the remaining activity at 100 µM came to 75%.

`CCOC(=O)c1cnc(C(F)(F)F)c(Oc2ccccc2)c1O` [Compound 109, Ethyl 4-Hydroxy-5-phenoxy-6-(trifluoromethyl)-3-pyridinecarboxylate]: the remaining activity at 100 µM turned out to be 76%.

As for `COC(=O)c1c(C(F)F)nc(C(F)(F)F)c(-c2ncco2)c1CC(C)C` [Compound 110, Methyl 2-(difluoromethyl)-4-(2-methylpropyl)-5-(2-oxazolyl)-6-(trifluoromethyl)-3-pyridinecarboxylate], the remaining activity at 100 µM stood at 76%.

As for `COC(=O)c1c(C(F)F)nc(C(F)(F)F)c(C(=N)SC)c1CC1CC1` [Compound 112, Methyl 4-(Cyclopropylmethyl)-2-(difluoromethyl)-5-[imino(methylthio)methyl]-6-(trifluoromethyl)-3-pyridinecarboxylate], the remaining activity at 100 µM was found to be 78%.

For the compound `CCOC(=O)c1cnc(C(F)(F)F)c(OCC)c1O` [Compound 114, Ethyl 5-Ethoxy-4-Hydroxy-6-(trifluoromethyl)-3-pyridinecarboxylate], the remaining activity at 100 µM worked out at 81%.

On to `COC(=O)c1c(C(F)F)nc(C(F)(F)F)c(NC(=O)c2sc(Cl)nc2C(F)(F)F)c1CC(C)C` [Compound 117, Methyl {-[2-Chloro-4-(trifluoromethyl)-5-thiazolyl]carbonylamino}-2-(difluoromethyl)-4-(2-methylpropyl)-6-(trifluoromethyl)-3-pyridinecarboxylate], for which the remaining activity at 100 µM was found to be 83%.

For `COC(=O)c1c(C(F)F)nc(C(F)(F)F)c(C(N)=S)c1C1CCC1` [Compound 119, Methyl 5-(aminothioxomethyl)-4-(cyclobutyl)-2-(difluoromethyl)-6-(trifluoromethyl)-3-pyridinecarboxylate], the remaining activity at 100 µM worked out at 84%.

With `Cc1c(C(F)(F)F)ncc(C(=O)O)c1Sc1ccc(C(C)C)cc1` [Compound 126, 4-(4-Isopropylphenylthio)-5-methyl-6-(trifluoromethyl)-3-pyridinecarboxylic Acid], the remaining activity at 100 µM amounted to 90%.

Turning to `COC(=O)c1c(OC(C)C)ccnc1C(F)(F)F` [Compound 127, Methyl 4-(1-Methylethoxy)-2-(trifluoromethyl)-3-pyridinecarboxylate], the remaining activity at 100 µM came out at 90%.

Still in this assay, the particulars now being: IC50(μm), 50% inhibition of [3H]CE transfer from HDL to LDL, 2 hours at 37° C.
`COC(=O)c1c(C(F)F)nc(C(F)(F)F)c(C(=NC(C)C)SC)c1CC(C)C` [Compound 58, Methyl 2-(difluoromethyl)-5-{[isopropylimino(methylthio)methyl]}-4-(2-methylpropyl)-6-(trifluoromethyl)-3-pyridinecarboxylate]: the IC50 came to 55 µM.

Regarding `COC(=O)c1c(C(F)F)nc(C(F)(F)F)c(C2OCCCO2)c1CC(C)C` [Compound 59, Methyl 2-(Difluoromethyl)-5-(1,3-dioxan-2-yl)-4-(2-methylpropyl)-6-(trifluoromethyl)-3-pyridinecarboxylate], the 50% inhibitory concentration (IC50) was found to be 55 µM.

In turn, `COC(=O)c1c(C(F)F)nc(C(F)(F)F)c(C2SCCS2)c1CC(C)C` [Compound 61] registered an IC50 of 60 µM.

On to `CCCc1c(C(=O)OC)c(C(F)F)nc(C(F)(F)F)c1C(=O)SCC` [Compound 62], for which inhibition was half-maximal at 60 µM (IC50).

In the case of `CCSc1c(C(F)(F)F)nc(C(F)F)c(C(=O)OC)c1C1CCC1` [Compound 66], inhibition was half-maximal at 60 µM (IC50).

With `COC(=O)c1c(C(F)F)nc(C(F)(F)F)c(C(=O)SC)c1CC(C)C` [Compound 69], the half-maximal inhibitory concentration (IC50) came to 65 µM.

In turn, `COC(=O)c1c(C(F)F)nc(C(F)(F)F)c(-n2cccc2)c1C1CCC1` [Compound 70, Methyl 2-(Difluoromethyl)-4-cyclobutyl-5-(1-pyrrolyl)-6-(trifluoromethyl)-3-pyridinecarboxylate] returned an IC50 of 65 µM.

The IC50 is the concentration needed to halve the response being measured.
